Test results: patent US12576087B2, “Aryloxypiperidine pyrazole compounds as indoleamine 2,3-dioxygenase inhibitors” (Merck Sharp & Dohme LLC, priority 2018, dated 2026)

Target: IDO1 (Homo sapiens, UniProt P14902)
Assay: IDO1 Human Whole Blood Assay
Format: cell-based
Conditions: WBLD taken as whole blood; read-out: WBLD IC50
Method: Compounds to be tested were serially diluted in ten 3-fold steps in DMSO starting from 10 mM. 3 μL of compound dilutions or DMSO alone were then dispensed from the dilution plate into a polypropylene 96-well assay plate containing 97 μL of RPMI medium using an Echo 555 acoustic liquid handler (Labcyte). LPS and IFNγ was prepared in RPMI medium to a 10× of final conc. (1000 ng/mL), final concentration is 100 ng/mL.
Human whole blood was drawn in sodium heparin coated tubes from healthy internal donors. 240 μL of blood was transferred to each of the wells of a v-bottom 96 well plate. 30 μL of compound was transferred from intermediate dilution plate, and incubated for 15 min. 30 μL from stimulants was then transferred to blood and mixed thoroughly. Plate was covered with breathable membrane and incubated at 37° C. for overnight (18 h).
On day 2, isotope labeled standard solutions of kunurenine and tryptophan was made in water at 10× concentration and 30 μL was added to the blood at 3 μM final concentration. The assay plates were centrifuged at 300×G for 10 min with no brake to separate plasma from red blood cells. 60 μL of plasma samples was removed without disturbing red blood cells. Plasma was diluted with RPMI in 1:1 ratio and proteins were precipitated out with two volumes of Acetonitrile. The plates were centrifuged at 4000×G for 60 min. 20 μL of supernatant was carefully transferred to a 384 well plate containing 40 μL of 0.1% formic acid in water and analyzed by LC/MS/MS.
LC/MS/MS analyses were performed using Thermo Fisher's LX4-TSQ Quantum Ultra system. This system consists of four Agilent binary high-performance liquid chromatography (HPLC) pumps and a TSQ Quantum Ultra triple quadrupole MS/MS instrument. For each sample, 5 μL were injected onto an Atlantis T3 column (2.1 mm×150 mm, 3 μm particle size) from Waters. The mobile phase gradient pumped at 0.8 mL/min was used to elute the analytes from the column at 25° C. The elution started at 0% B increasing linearly to 25% B at 6.5 min, holding at 25% for 1 min, re-equilibrating to 10 min. Mobile phase A consisted of 0.1% formic acid in water. Mobile phase B consisted of 0.1% of formic acid in acetonitrile. Data were acquired in positive mode using a HESI interface. The operational parameters for the TSQ Quantum Ultra instrument were a spray voltage of 4000 V, capillary temperature of 380° C., vaporizer temperature 400° C., shealth gas 60 arbitrary units, Aux gas 20 arbitrary units, tube lens 85 and collision gas 1.2 mTorr. SRM chromatograms of kynurenine (Q1: 209.2>Q3:94.0) and internal standard (Q1: 215.3>Q3:98.2) were collected for 90 sec. The peak area was integrated by Xcalibur Quan software. The ratios between the kynurenine generated in the reaction and 2D6-Kynurenine spiked-in internal standard were used to generate percentage inhibition and IC50 values. Compounds were titrated and IC50's were calculated by 4 parameter sigmoidal curve fitting formula.

Chain of IDO1 (P14902 whole entry): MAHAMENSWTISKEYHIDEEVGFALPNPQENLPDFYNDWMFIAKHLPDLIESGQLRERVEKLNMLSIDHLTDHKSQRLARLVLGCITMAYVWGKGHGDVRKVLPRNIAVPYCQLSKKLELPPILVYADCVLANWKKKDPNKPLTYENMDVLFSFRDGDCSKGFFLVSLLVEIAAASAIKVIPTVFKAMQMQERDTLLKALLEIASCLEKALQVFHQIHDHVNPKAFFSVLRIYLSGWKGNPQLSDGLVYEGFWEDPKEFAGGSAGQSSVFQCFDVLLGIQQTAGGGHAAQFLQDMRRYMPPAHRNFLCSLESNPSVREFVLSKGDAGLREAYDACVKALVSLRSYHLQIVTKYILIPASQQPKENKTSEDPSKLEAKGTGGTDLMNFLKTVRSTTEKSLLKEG

SMILES | IC50
Cc1ccccc1OC1CCN(C(=O)Cn2nc(C(=O)N3CCC(O)(CF)CC3)c3c2CCC3)CC1 [Example 35, 2-(3-(4-(fluoromethyl)-4-hydroxypiperidine-1-carbonyl)-5,6-dihydrocyclopenta[c]pyrazol-1(4H)-yl)-1-(4-(o-tolyloxy)piperidin-1-yl)ethanone] | 140 nM
Cc1ccccc1OC1CCN(C(=O)Cn2nc(C(=O)N3CC[C@@H](O)[C@@H](F)C3)c3c2CCCC3)CC1 [Example 36, 2-(3-((3S,4R)-3-fluoro-4-hydroxypiperidine-1-carbonyl)-4,5,6,7-tetrahydro-1H-indazol-1-yl)-1-(4-(o-tolyloxy)piperidin-1-yl)ethanone] | 108 nM
Cc1ccccc1OC1CCN(C(=O)Cn2nc(C(=O)N3CCN(C(=O)CO)CC3)c3c2CCCC3)CC1 [Example 38, 2-hydroxy-1-(4-(1-(2-oxo-2-(4-(o-tolyloxy)piperidin-1-yl)ethyl)-4,5,6,7-tetrahydro-1H-indazole-3-carbonyl)piperazin-1-yl)ethanone] | 33 nM
C[C@@H]1C[C@H](Oc2ccccc2Cl)CCN1C(=O)Cn1nc(C(=O)N2CC[C@@H](O)[C@@H](F)C2)c2c1C[C@H]1C[C@@H]21 [Example 52, 1-((2R,4R)-4-(2-chlorophenoxy)-2-methylpiperidin-1-yl)-2-((3bR,4aR)-3-((3S,4R)-3-fluoro-4-hydroxypiperidine-1-carbonyl)-3b,4,4a,5-tetrahydro-1H-cyclopropa[3,4]cyclopenta[1,2-c]pyrazol-1-yl)ethanone] | 101 nM
Cc1cc(F)ccc1OC1CCN(C(=O)Cn2nc(C(=O)N3CCC(OCCO)CC3)c3c2CCCC3)CC1 [Example 76, 1-[4-(4-fluoro-2-methyl-phenoxy)-1-piperidyl]-2-[3-[4-(2-hydroxyethoxy)piperidine-1-carbonyl]-4,5,6,7-tetrahydroindazol-1-yl]ethanone] | 59.8 nM
Cc1cc(F)ccc1OC1CCN(C(=O)Cn2nc(C(=O)N3CCC(F)(CO)CC3)c3c2CCCC3)CC1 [Example 78, 2-[3-[4-fluoro-4-(hydroxymethyl)piperidine-1-carbonyl]-4,5,6,7-tetrahydroindazol-1-yl]-1-[4-(4-fluoro-2-methyl-phenoxy)-1-piperidyl]ethanone] | 19.7 nM
Cc1cc(F)ccc1OC1CCN(C(=O)Cn2nc(C(=O)N3CCC(F)(CO)CC3)c3c2CCC3)CC1 [Example 80, 2-[3-[4-fluoro-4-(hydroxymethyl)piperidine-1-carbonyl]-5,6-dihydro-4H-cyclopenta[c]pyrazol-1-yl]-1-[4-(4-fluoro-2-methyl-phenoxy)-1-piperidyl]ethanone] | 259 nM

The remaining compounds from weak to strong by IC50, led by results:

IC50 | SMILES
140 nM | Cc1cc(F)ccc1OC1CCN(C(=O)Cn2nc(C(=O)N3CCN(C(=O)CO)CC3)c3c2CCCC3)CC1 [Example 79, 1-[4-(4-fluoro-2-methyl-phenoxy)-1-piperidyl]-2-[3-[4-(2-hydroxyacetyl)piperazine-1-carbonyl]-4,5,6,7-tetrahydroindazol-1-yl]ethanone]
107 nM | Cc1ccccc1OC1CCN(C(=O)Cn2nc(C(=O)N3CC[C@@H](O)[C@@H](F)C3)c3c2CCC3)CC1 [Example 40, 2-(3-((3S,4R)-3-fluoro-4-hydroxypiperidine-1-carbonyl)-5,6-dihydrocyclopenta[c]pyrazol-1(4H)-yl)-1-(4-(o-tolyloxy)piperidin-1-yl)ethanone]
89.8 nM | Cc1cc(F)ccc1OC1CCN(C(=O)Cn2nc(C(=O)N3CCO[C@H](CO)C3)c3c2CCCC3)CC1 [Example 81, 1-[4-(4-fluoro-2-methyl-phenoxy)-1-piperidyl]-2-[3-[(2S)-2-(hydroxymethyl)morpholine-4-carbonyl]-4,5,6,7-tetrahydroindazol-1-yl]ethanone]
85.9 nM | Cc1ccccc1OC1CCN(C(=O)Cn2nc(C(=O)N3CCC(O)CC3)c3c2CCC3)CC1 [Example 33, 2-(3-(4-hydroxypiperidine-1-carbonyl)-5,6-dihydrocyclopenta[c]pyrazol-1(4H)-yl)-1-(4-(o-tolyloxy)piperidin-1-yl)ethanone]
